From patent US9801809B2, “Compositions including a botanical extract and methods of using the same in skin whitening and skin lightening applications” (Access Business Group International LLC, priority 2014, dated 2017)

System: Melan-a cells
Assay: Melanin production in Melan-a cells
Assay type: cell-based
Conditions: extract 25 μg and 12.5 μg, treated twice, compared to 100% untreated control, FIG. 3
Procedure: The chrysanthemum extract in an amount of 25 μg and 12.5 μg was solubilized in DMSO and added to Melan-a cells that were freshly seeded at a density of 5×10^4 cells on a 24 well plate. The cytosolic pH of the Melan-a melanocytes in this assay is about 5-7. Each dose of the chrysanthemum extract was added to the cells in triplicate. The final concentration of DMSO in the culture medium was maintained at 0.25%. Forty eight hours following the first set of treatment, the cells were again treated with the chrysanthemum extract and supplemented with fresh medium. Two days later, melanin was extracted and quantified by normalizing with protein content, following the method described by Komatsu et al. (J. Cosmet. Sci; 64, 455-453 (2013); Rana J. et al., Pigment Cell Res., 18:447 (2005)). Inhibitory activity of samples was reported as % reduction in melanin production compared to 100% untreated control (UT). Phenylthiourea (PTU), a well-known tyrosinase inhibitor was used as positive inhibitor control in the assay. FIG. 3 plots the results.

**Q.** With `O=c1cc(-c2ccc(O)c(O)c2)oc2cc(O[C@@H]3OC(CO)[C@@H](O)C(O)C3O)cc(O)c12` (stereo partly shown) [luteolin-7 glucoside] as the molecule, how does the “reduction in melanin production” value read?
**A.** dose-dependent inhibition
